In brackets after ≈: the same amount, converted by molar mass. Entries after “also recorded” stand apart in the source; their conditions may differ. Where two headings read alike, the source gives them in different places.
What was measured:
S. aureus biofilms = experiment: Single antibiotic treatment of S. aureus biofilms (SGT method); assay type: cell-based, Staphylococcus aureus; settings: for biofilm bactericidal concentration (BBC): S. aureus biofilms grown 48 h, 24 h treatment, 3 log10 CFU (99.9%) reduction vs control
From the text: (§1) FIGS. 1A and 1B illustrates effects of different antibiotics tested in a dose-dependent manner against bacterial biofilms of different isolates of S. aureus and E. faecalis using only one antibiotic per treatment to screen the effect of the single antibiotics against bacterial biofilms. The graphs show the decadic logarithm of the colony forming units (log10 CFU) of either S. aureus or E. faecalis on the ordinate in relation to the concentration of various antibiotics on the abscissa. Data points belonging to one antibiotic were connected by lines for clarity. In each graph, the dashed line reflects the biofilm bactericidal concentration (BBC), defined as the target of 3 log10 CFU below the control, i.e. the log10 CFU of untreated biofilms (shown at the antibiotic concentration of 0 mg/L), which needs to be undercut to achieve a meaningful suppression of the bacteria in a biofilm of ≥99.9%. The line graphs intersecting this line indicate the antibiotics' concentrations that need to be applied for effective treatment in S. aureus and E. faecalis biofilms. […] For instance, the BBC of rifampicin against S. aureus is ˜4 mg/L; the BBC of dalbavancin is ˜32 mg/L against E. faecalis in biofilms.
FIGS. 1A and 1B illustrate the effect of different antibiotics tested in a dose-depended manner against bacterial biofilms of different bacterial isolates of S. aureus and E. faecalis using only one antibiotic per treatment to screen the effect of the single antibiotics against bacterial biofilms. To obtain the results the inventors used four strains of S. aureus, i.e. three patient isolates and one reference strain, and three strains of E. faecalis, i.e. two isolates from patients as well as one reference strain. In order to test the different antibiotics individually against the bacterial biofilms, the inventors incubated bacterial suspensions of E. faecalis and S. aureus strains in a 96 well microtiter plate for biofilm formation for 48 hours in a humidified modified atmosphere at 37° C. and 5% CO2 without shaking. For the antibiotic treatment of the biofilms the supernatant of each well was removed and the antibiotic treatment with the individual antibiotics to be tested was added to the biofilms and incubated for 24 hours at the same conditions. The number of bacteria in each well after the 24-hour treatment was determined via so called start-growth-time (SGT) method, where the bacterial regrowth of the dispersed bacteria from the biofilms was measured in an incubation chamber of a plate reader over time. Lower bacteria densities lead to a longer regrowth time to reach a certain threshold compared to controls. Each treatment for each strain was performed in three technical replicates. […]

[1] = cited from earlier work
planktonic S. aureus = experiment: Minimal inhibitory concentration for planktonic S. aureus; assay type: cell-based; settings: Staphylococcus aureus
E. faecalis biofilms = experiment: Single antibiotic treatment of E. faecalis biofilms (SGT method); assay type: cell-based, Enterococcus faecalis; settings: for biofilm bactericidal concentration (BBC): E. faecalis biofilms grown 48 h, 24 h treatment, 3 log10 CFU (99.9%) reduction vs control
From the text: as §1
FIGS. 1A and 1B illustrate the effect of different antibiotics tested in a dose-depended manner against bacterial biofilms of different bacterial isolates of S. aureus and E. faecalis using only one antibiotic per treatment to screen the effect of the single antibiotics against bacterial biofilms. To obtain the results the inventors used four strains of S. aureus, i.e. three patient isolates and one reference strain, and three strains of E. faecalis, i.e. two isolates from patients as well as one reference strain. […] The number of bacteria in each well after the 24-hour treatment was determined via so called start-growth-time (SGT) method, where the bacterial regrowth of the dispersed bacteria from the biofilms was measured in an incubation chamber of a plate reader over time. […]

[2] = test system: planctonic Enterococcus faecalis; experiment: Minimal inhibitory concentration for planktonic Enterococcus faecalis; assay type: cell-based
[3] = systemic therapy, 'believed to be'

SMILES | biofilm bactericidal concentration (BBC) (S. aureus biofilms) | approximate concentration in tissue with systemic therapy [1, 3] | MIC (planktonic S. aureus) | biofilm bactericidal concentration (BBC) (E. faecalis biofilms) | further results
CO[C@H]1/C=C/O[C@@]2(C)Oc3c(C)c(O)c4c(O)c(c(/C=N/N5CCN(C)CC5)c(O)c4c3C2=O)NC(=O)/C(C)=C\C=C\[C@H](C)[C@H](O)[C@@H](C)[C@@H](O)[C@@H](C)[C@H](OC(C)=O)[C@@H]1C [rifampicin] | ~4 mg/L | ~1 mg/L | ~0.004 mg/L (≈ 0.00486 µM) | – | –
CCCCCCCCCC(=O)N[C@@H](Cc1c[nH]c2ccccc12)C(=O)N[C@H](CC(N)=O)C(=O)N[C@@H](CC(=O)O)C(=O)N[C@@H]1C(=O)NCC(=O)N[C@@H](CCCN)C(=O)N[C@@H](CC(=O)O)C(=O)N[C@H](C)C(=O)N[C@@H](CC(=O)O)C(=O)NCC(=O)N[C@H](CO)C(=O)N[C@@H]([C@H](C)CC(=O)O)C(=O)N[C@@H](CC(=O)c2ccccc2N)C(=O)O[C@@H]1C [daptomycin] | – | – | ~0.25 mg/L (≈ 0.154 µM) | about 32 mg/L | suppression of bacteria in biofilms (in words) (E. faecalis biofilms; E. faecalis biofilms, single antibiotic): can suppress the bacteria sufficiently; also recorded: highest potency; MIC [2]: ~0.25 mg/L (≈ 0.154 µM); suppression of bacteria in biofilms (in words) (S. aureus biofilms; S. aureus biofilms, single antibiotic): can suppress the bacteria sufficiently; also recorded: highest potency; approximate concentration in tissue with systemic therapy ([1]; in vivo): ~4 mg/L
CN[C@H](CC(C)C)C(=O)N[C@H]1C(=O)N[C@@H](CC(N)=O)C(=O)N[C@H]2C(=O)N[C@H]3C(=O)N[C@H](C(=O)N[C@H](C(=O)O)c4cc(O)cc(O)c4-c4cc3ccc4O)[C@H](O)c3ccc(c(Cl)c3)Oc3cc2cc(c3O[C@@H]2O[C@H](CO)[C@@H](O)[C@H](O)[C@H]2O[C@H]2C[C@](C)(N)[C@H](O)[C@H](C)O2)Oc2ccc(cc2Cl)[C@H]1O [vancomycin] | – | ~1 mg/L | – | – | –
NCC[C@H](O)C(=O)N[C@@H]1C[C@H](N)[C@@H](O[C@H]2O[C@H](CN)[C@@H](O)[C@H](O)[C@H]2O)[C@H](O)[C@H]1O[C@H]1O[C@H](CO)[C@@H](O)[C@H](N)[C@H]1O [Amikacin, amikacin] | > 512 mg/L | – | – | – | –
C[C@@H]1O[C@@H]1P(=O)(O)O [phosphomycin] | – | – | – | > 1024 mg/L | –
CN[C@H]1C(=O)N[C@@H]2Cc3ccc(cc3)Oc3cc4cc(c3O[C@@H]3O[C@H](C(=O)O)[C@@H](O)[C@H](O)[C@H]3NC(=O)CCCCCCCCC(C)C)Oc3ccc(cc3Cl)[C@@H](O)[C@@H]3NC(=O)[C@H](NC(=O)[C@@H]4NC(=O)[C@@H](NC2=O)c2cc(cc(O)c2Cl)Oc2cc1ccc2O)c1ccc(O)c(c1)-c1c(O[C@H]2O[C@H](CO)[C@@H](O)[C@H](O)[C@@H]2O)cc(O)cc1[C@@H](C(=O)NCCCN(C)C)NC3=O [dalbavancin] | about 4 mg/L | – | – | – | –

Reference: patent US11759460B2, “Method of local antibiotic treatment of infective endocarditis” (priority 2020, dated 2023)
